Measured values from patent publication US9290511B2, “Thieno-pyrimidines, useful as potassium channel inhibitors” (XENTION LIMITED, priority 2011, dated 2016).

What follows are compounds tested against T1, Kir3.1/3.4 (Rattus norvegicus, UniProt P48548+P63251) (assay: Kir3.1/3.4 Electrophysiology Method (manual whole-cell patch clamp)). Conditions: Electrophysiology Method (TABLE 1).
T1 construct: expressed in transfected cells
T1 sequence (P63251 1-501): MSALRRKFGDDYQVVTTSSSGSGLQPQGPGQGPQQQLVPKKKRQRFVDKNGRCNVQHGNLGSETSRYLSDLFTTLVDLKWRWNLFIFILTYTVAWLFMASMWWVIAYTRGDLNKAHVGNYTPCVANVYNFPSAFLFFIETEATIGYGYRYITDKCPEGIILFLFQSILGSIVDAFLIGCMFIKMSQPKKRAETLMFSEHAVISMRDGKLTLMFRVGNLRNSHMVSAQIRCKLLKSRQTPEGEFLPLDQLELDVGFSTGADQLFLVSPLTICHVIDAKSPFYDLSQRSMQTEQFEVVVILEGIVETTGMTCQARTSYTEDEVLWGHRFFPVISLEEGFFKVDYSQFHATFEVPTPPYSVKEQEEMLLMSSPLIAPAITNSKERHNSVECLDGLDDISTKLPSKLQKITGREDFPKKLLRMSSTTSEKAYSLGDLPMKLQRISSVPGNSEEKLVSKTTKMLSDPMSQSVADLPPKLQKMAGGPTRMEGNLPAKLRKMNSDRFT
T1 sequence (P48548 1-419): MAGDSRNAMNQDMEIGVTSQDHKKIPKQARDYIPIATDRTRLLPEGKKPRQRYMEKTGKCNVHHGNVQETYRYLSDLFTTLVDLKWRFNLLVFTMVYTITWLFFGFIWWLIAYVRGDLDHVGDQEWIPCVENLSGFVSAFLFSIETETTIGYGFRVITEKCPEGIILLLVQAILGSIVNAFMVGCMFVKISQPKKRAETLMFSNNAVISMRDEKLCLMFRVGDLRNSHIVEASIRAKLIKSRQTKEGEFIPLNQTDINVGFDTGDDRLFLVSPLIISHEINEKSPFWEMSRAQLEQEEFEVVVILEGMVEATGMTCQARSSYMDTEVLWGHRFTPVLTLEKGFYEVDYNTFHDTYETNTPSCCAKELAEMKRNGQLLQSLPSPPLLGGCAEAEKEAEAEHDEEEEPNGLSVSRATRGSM
Type: cell-based
Description: Compound activity against the recombinant G-protein activated inward rectifier current encoded by the heterotetramer Kir3.1/3.4 was assessed using manual whole-cell patch technique. The heterotetramer forms the pore-forming channel that conducts the acetylcholine/adenosine-activated potassium current in the heart.
For whole-cell patch-clamp studies, cells (Human Embryonic Kidney 293 stably transfected with rat Kir3.1/3.4) were seeded onto glass coverslips before recordings were made. Cells were seeded in sterile 30 mm Petri dishes at a density to enable isolated cells to be selected for patch clamp experiments. The dishes were stored in a humidified, gassed (5% CO2) incubator at 37° C. until use.
Whole-cell patch-clamp recordings of membrane currents were made following gigaohm seal formation between the patch electrode and the cell using HEKA EPC-9/10 amplifiers controlled by Pulse Software (Ver8.5x/8.6×/8.7×, HEKA, Germany). Coverslips seeded with cells were placed in a recording chamber mounted on the stage of an inverted microscope. During the experiment, the cell of interest was continuously superfused with bather solution delivered via a cannula placed in close proximity to the cell to enable control of the extracellular solution environment. Only those cells with a current <−500 pA (current at −140 mV) were used for experiments. During experiments, series resistance was compensated by a minimum of 70%.
Electrophysiology voltage-step protocols and analysis of data were performed as follows. Data was sampled at 5 kHz, and filtered with a −3 dB bandwidth of 2.5 kHz. Cells were held at a voltage of −60 mV. Currents were evoked by a depolarising voltage step to +60 mV (100 ms) before a ramp-repolarisation (0.4 V·s^−1) to −140 mV (100 ms) before returning to −60 mV. The command waveform was repeatedly applied every 10 s throughout the experiment. Mean currents during 1-99% of the time at −140 mV were analysed using Pulsefit software (v8.x, HEKA, Germany). The voltage protocol was repeatedly applied to achieve a stable current baseline in bather before the test substance was superfused via the cannula in close proximity to the cell under investigation. The test substance was allowed to equilibrate during which time voltage protocol was repeatedly applied and recorded. On reaching steady-state inhibition, the cell was superfused with an identical bather solution containing zero external potassium chloride (replaced by equimolar NaCl). The identical current measurement was made in the absence of potassium to assess the passive leak at −140 mV. The leak current was subtracted from the control and steady-state drug current values. The percentage inhibition of the leak-subtracted current in the presence of test substance was calculated relative to the control leak-subtracted pre-drug value. Internal patch-pipette solution contained in mM: 110 KCl, 20 NaCl, 0.9 GTPγS, 5 Mg-ATP, 5 EGTA, 10 HEPES, pH7.2 corrected with KOH. The external superfusate composition in mM was: 150 (or 160) NaCl, 10 (or 0) KCl, 3 CaCl2, 1 MgCl, 10 HEPES, pH 7.4 corrected with NaOH.

| Compound | IC50 |
| --- | --- |
| c1ccc(-c2csc3ncnc(N4CCC(COCCN5CCCC5)CC4)c23)nc1 [Example 320] | 500 to 3000 nM |
| c1ccc(-c2csc3ncnc(N4CCC(COC5CCC5)CC4)c23)cc1 [Example 9, 4-[4-(cyclobutoxymethyl)-1-piperidyl]-5-phenyl-thieno[2,3-d]pyrimidine] | < 500 nM |
| c1ccc(-c2csc3nc(OC4CC5CC4CN5)nc(N4C5CCC4COC5)c23)cc1 (stereo not drawn) [Example 349, 8-[2-(2-azabicyclo[2.2.1]heptan-5-yloxy)-5-phenyl-thieno[2,3-d]pyrimidin-4-yl]-3-oxa-8-azabicyclo[3.2.1]octane] | < 500 nM |
| COCC1CCN(c2nc(CC(=O)N3CCCC3)nc3scc(-c4ccccc4)c23)CC1 [Example 183, 2-[4-[4-(methoxymethyl)-1-piperidyl]-5-phenyl-thieno[2,3-d]pyrimidin-2-yl]-1-pyrrolidin-1-yl-ethanone] | 500 to 3000 nM |
| CC(C)OCC1CCN(c2ncnc3scc(-c4ccccc4)c23)CC1 [Example 15, 4-[4-(isopropoxymethyl)-1-piperidyl]-5-phenyl-thieno[2,3-d]pyrimidine] | 500 to 3000 nM |
| COc1ncccc1-c1csc2ncnc(N3C4CCC3CC(CO)C4)c12 (stereo not drawn) [Example 365] | 500 to 3000 nM |
| CCCNCC1CCN(c2ncnc3scc(-c4ccccc4)c23)CC1 [Example 51, N-[[1-(5-phenylthieno[2,3-d]pyrimidin-4-yl)-4-piperidyl]methyl]propan-1-amine] | 500 to 3000 nM |
| N-(2-pyrrolidin-1-ylethyl)thieno[2,3-d]pyrimidin-2-amine [Example 108] | 500 to 3000 nM |
| CN1CCC(N(C)CC2CCN(c3ncnc4sc(C(=O)N(C)C)c(-c5ccccc5)c34)CC2)C1 (stereo not drawn) [Example 136] | 500 to 3000 nM |
| CC(C)NC(=O)c1sc2ncnc(N3C4CCC3CC(COCCN3CCCC3)C4)c2c1-c1ccccc1 (stereo not drawn) [Example 357] | < 500 nM |
| Fc1ccc(-c2csc3ncnc(N4CCC(CNC5CC5)CC4)c23)cc1 [Example 77, N-[[1-[5-(4-fluorophenyl)thieno[2,3-d]pyrimidin-4-yl]-4-piperidyl]methyl]cyclopropanamine] | 500 to 3000 nM |
| O=C1CN(CC2CCN(c3ncnc4scc(-c5ccccc5)c34)CC2)CCN1 [Example 213] | 500 to 3000 nM |
| CN1CCCC1CCNCC1CN(c2ncnc3scc(-c4ccccc4)c23)C1 (stereo not drawn) [Example 219] | < 500 nM |
| CC(=O)NC1CCN(c2nc(N3CCC(COCCN4CCCC4)CC3)c3c(-c4ccccc4)csc3n2)C1 (stereo not drawn) [Example 257] | < 500 nM |
| CC(C)NC(=O)c1sc2ncnc(N3CCC(CN(C)C4CCN(C)C4)CC3)c2c1-c1ccccc1 (stereo not drawn) [Example 132] | < 500 nM |
| O=C1CCCN1c1sc2nc(N3CCC(COCCN4CCCC4)CC3)ncc2c1-c1ccccc1 [Example 156] | < 500 nM |
| N-methyl-5-phenyl-thieno[2,3-d]pyrimidine-6-carboxamide [Example 343] | 500 to 3000 nM |
| CN(C)C1CCN(CC2CCN(c3ncnc4scc(-c5ccccc5)c34)CC2)CC1 [Example 75, N,N-dimethyl-1-[[1-(5-phenylthieno[2,3-d]pyrimidin-4-yl)-4-piperidyl]methyl]piperidin-4-amine] | < 500 nM |

Further lines, results first:

| IC50 | Compound |
| --- | --- |
| < 500 nM | CC(=O)N(C)C1CCN(c2nc(N3CCC(CN(C)C4CCN(C)C4)CC3)c3c(-c4ccccc4)csc3n2)CC1 (stereo not drawn) [Example 241] |
| < 500 nM | FC(F)(F)c1nc(N2CCC(COCCN3CCCC3)CC2)c2c(-c3ccccc3)csc2n1 [Example 340, 5-phenyl-4-[4-(2-pyrrolidin-1-ylethoxymethyl)-1-piperidyl]-2-(trifluoromethyl)thieno[2,3-d]pyrimidine] |
| < 500 nM | 5-phenyl-thieno[2,3-d]pyrimidine [Example 160] |
| < 500 nM | O=C1CCCN1c1sc2ncnc(N3CCC(COCCN4CCCC4)CC3)c2c1-c1ccccc1 [Example 163] |
| < 500 nM | c1ccc(-c2csc3ncnc(N4CCC(CN5CCOC(c6ccccc6)C5)CC4)c23)cc1 (stereo not drawn) [Example 56, 2-phenyl-4-[[1-(5-phenylthieno[2,3-d]pyrimidin-4-yl)-4-piperidyl]methyl]morpholine] |
| < 500 nM | Cc1sc2ncnc(N3CCC(CN4CCCC(N(C)C)C4)CC3)c2c1C (stereo not drawn) [Example 234] |
| < 500 nM | NC(=O)[C@@H]1CCCN1CC1CCN(c2ncnc3scc(-c4ccccc4)c23)CC1 [Example 106] |
| < 500 nM | OCCN(CCO)CC1CCN(c2ncnc3scc(C4CCCCC4)c23)CC1 [Example 201] |
| < 500 nM | c1ccc(-c2csc3ncnc(N4CCC(OCCN5CCCC5)CC4)c23)cc1 [Example 271] |
| < 500 nM | CC(NC1CC1)C1CCN(c2ncnc3scc(-c4ccccc4)c23)CC1 (stereo not drawn) [Example 96, N-[1-[1-(5-phenylthieno[2,3-d]pyrimidin-4-yl)-4-piperidyl]ethyl]cyclopropanamine] |
| < 500 nM | CNC(=O)c1sc2ncnc(N3CCC(COCCN4CCCC4)CC3)c2c1-c1ccccc1 [Example 141] |
| < 500 nM | CN1CCC(NC2CCN(c3ncnc4scc(-c5ccccc5)c34)CC2)CC1 [Example 223] |
| < 500 nM | COCC1CCN(c2nc(N3CCC(CO)CC3)nc3scc(-c4ccccc4)c23)CC1 [Example 191] |
| < 500 nM | NC(=O)C1CCN(CCOC2CC3CC2CN3c2ncnc3scc(-c4ccccc4)c23)C1 (stereo not drawn) [Example 290] |
| < 500 nM | Fc1ccc(-c2csc3nc(Cl)nc(N4CCC(COCCN5CCCC5)CC4)c23)cc1 [Example 279] |
| < 500 nM | c1ccc(-c2csc3ncnc(N4CCC(CN5CCC(N6CCCC6)C5)CC4)c23)cc1 (stereo not drawn) [Example 76, 5-phenyl-4-[4-[(3-pyrrolidin-1-ylpyrrolidin-1-yl)methyl]-1-piperidyl]thieno[2,3-d]pyrimidine] |
| < 500 nM | Cc1csc2ncnc(N3CCC(CNCCC4CCCN4C)CC3)c12 (stereo not drawn) [Example 243] |
| < 500 nM | CN1CCC(N(C)CC2CCN(c3nc(N4CCC(C(N)=O)CC4)nc4scc(-c5ccccc5)c34)CC2)C1 (stereo not drawn) [Example 239] |
| < 500 nM | CN1CCC(N(C)CC2CCN(c3nc(N4CCNCC4)nc4scc(-c5ccccc5)c34)CC2)C1 (stereo not drawn) [Example 112] |
| < 500 nM | CN(C)C1CCN(C2CCN(c3ncnc4scc(-c5ccccc5)c34)CC2)CC1 [Example 222] |
| < 500 nM | Fc1ccc(-c2csc3ncnc(N4CC5C(COCCN6CC7CC6CO7)C5C4)c23)cc1 (stereo not drawn) [Example 48, 5-[2-[[3-[5-(4-fluorophenyl)thieno[2,3-d]pyrimidin-4-yl]-3-azabicyclo[3.1.0]hexan-6-yl]methoxy]ethyl]-2-oxa-5-azabicyclo[2.2.1]heptane] |
| < 500 nM | N[C@H]1CCCN(CC2CCN(c3ncnc4scc(-c5ccccc5)c34)CC2)C1 [Example 90, (3S)-1-[[1-(5-phenylthieno[2,3-d]pyrimidin-4-yl)-4-piperidyl]methyl]piperidin-3-amine] |
| < 500 nM | Cc1sc2ncnc(N3CCC(CNCCC4CCCN4C)CC3)c2c1C (stereo not drawn) [Example 220] |
| < 500 nM | COc1cccc(-c2csc3ncnc(N4CCC(COCCN5CCCC5)CC4)c23)c1 [Example 312] |
